# According to US8455475B2 (Gruenenthal GmbH, priority 2009, dated 2013):
# Molecular target: T1, rat B1R (bradykinin receptor 1) (Rattus norvegicus, UniProt P97583)
# T1 construct: expressed in transfected cells; host or cells: CHO K1 cells
# T1 sequence (P97583 1-337): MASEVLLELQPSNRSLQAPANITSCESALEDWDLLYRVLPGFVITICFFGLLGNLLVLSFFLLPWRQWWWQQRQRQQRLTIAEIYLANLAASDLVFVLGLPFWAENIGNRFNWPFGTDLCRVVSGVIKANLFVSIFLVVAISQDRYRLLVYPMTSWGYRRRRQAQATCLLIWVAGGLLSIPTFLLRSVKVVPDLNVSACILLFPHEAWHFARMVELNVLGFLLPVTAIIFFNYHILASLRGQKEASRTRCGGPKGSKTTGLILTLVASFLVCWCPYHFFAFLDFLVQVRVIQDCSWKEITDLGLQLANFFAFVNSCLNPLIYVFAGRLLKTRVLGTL
# Test: FLIPR Ca2+ assay (Fluo-4) on CHO K1 cells stably transfected with the B1R gene of the rat (rB1R cells): % inhibition at 10 μM / IC50, agonist Des-Arg9-bradykinin
# Type: cell-based
# Details: CHO-K1, rat B1R
# Method: The agonistic or antagonistic action of substances can be quantified on the bradykinin receptor 1 (B1R) of the human and rat species with ectopically expressing cell lines (CHO K1 cells) and with the aid of a Ca^2+-sensitive dyestuff (Fluo-4) in a fluorescent imaging plate reader (FLIPR). The figure in % activation is based on the Ca^2+ signal after addition of Lys-Des-Arg^9-bradykinin (0.5 nM) or Des-Arg^9-bradykinin (100 nM). Antagonists lead to a suppression of the Ca^2+ inflow after addition of the agonist. % inhibition compared with the maximum achievable inhibition is stated.
# The agonistic or antagonistic action of substances can be determined on the bradykinin receptor 1 (B1R) of the human and rat species with the following assay. In accordance with this assay, the Ca^2+ inflow through the channel is quantified with the aid of a Ca^2+-sensitive dyestuff (type Fluo-4, Molecular Probes Europe BV, Leiden, Holland) in a fluorescent imaging plate reader (FLIPR, Molecular Devices, Sunnyvale, USA).
# Chinese hamster ovary cells (CHO K1 cells) transfected stably with the human B1R gene (hB1R cells) or the B1R gene of the rat (rB1R cells) are used. For functional studies, these cells are plated out on black 96-well plates with a clear base (BD Biosciences, Heidelberg, Germany or Greiner, Frickenhausen, Germany) in a density of 20,000-35,000 cells/well. The cells are left overnight at 37° C. and 5% CO2 in culture medium (hB1R cells: Nutrient Mixture Ham's F12, Gibco Invitrogen GmbH, Karlsruhe, Germany or DMEM, Sigma-Aldrich, Taufkirchen, Germany; rB1R cells: D-MEM/F12, Gibco Invitrogen GmbH, Karlsruhe, Germany) with 10 vol. % FBS (foetal bovine serum, Gibco Invitrogen GmbH, Karlsruhe, Germany or PAN Biotech GmbH, Aidenbach, Germany). On the following day, the cells are loaded for 60 min at 37° C. with 2.13 μM Fluo-4 (Molecular Probes Europe BV, Leiden Holland) in HBSS buffer (Hank's buffered saline solution, Gibco Invitrogen GmbH, Karlsruhe, Germany) with 2.5 mM probenecid (Sigma-Aldrich, Taufkirchen, Germany) and 10 mM HEPES (Sigma-Aldrich, Taufkirchen, Germany). The plates are then washed 2× with HBSS buffer, and HBSS buffer which additionally contains 0.1% BSA (bovine serum albumin; Sigma-Aldrich, Taufkirchen, Germany), 5.6 mM glucose and 0.05% gelatine (Merck KGaA, Darmstadt, Germany) is added. After a further incubation of 20 minutes at room temperature, the plates are inserted into the FLIPR for the Ca^2+ measurement. Alternatively, the plates are washed with buffer A (15 mM HEPES, 80 mM NaCl, 5 mM KCl, 1.2 mM CaCl2, 0.7 mM MgSO4, 2 g/l glucose, 2.5 mM probenecid), buffer A is added and the plates are loaded with 2.5 μM Fluo-4 and 0.025% Pluronic F127 (Sigma-Aldrich, Taufkirchen, Germany). Thereafter, the cells are washed 2× with buffer A and incubated for 30 minutes at room temperature with buffer A, which additionally contains 0.05% BSA and 0.05% gelatine, and thereafter inserted into the FLIPR for the Ca^2+ measurement. The Ca^2+-dependent fluorescence is measured here before and after addition of substances (λex=488 nm, λem=540 nm). Quantification is by measurement of the highest fluorescence intensity (FC, fluorescence counts) over time.
# The FLIPR protocol consists of 2 additions of substance. Test substances (10 μM) are first pipetted on to the cells and the Ca^2+ inflow is compared with the control (hB1R: Lys-Des-Arg^9-bradykinin>=50 nM; rB1R: Des-Arg^9-bradykinin 10 μM). This gives the result in % activation based on the Ca^2+ signal after addition of Lys-Des-Arg^9-bradykinin (>=50 nM) or Des-Arg^9-bradykinin (10 μM). After incubation for 10-20 minutes, Lys-Des-Arg^9-bradykinin (hB1R) or Des-Arg^9-bradykinin (rB1R) in the concentration of the EC80 is applied and the inflow of Ca^2+ is likewise determined. Antagonists lead to a suppression of the Ca^2+ inflow. % inhibition compared with the maximum achievable inhibition is calculated.
# For determination of the IC50 value, the substances are added in various concentrations. […]
row,SMILES,inhibition at 10 µM
1,"Cc1cccc(Cl)c1S(=O)(=O)NC1CCc2ccc(C(=O)N3CCC4(CC3)CCN(c3ccc(C(F)(F)F)cc3)CC4)cc21 (stereo not shown) [IND_CC-239, 2-Chloro-6-methyl-N-[6-[9-[4-(trifluoromethyl)-phenyl]-3,9-diazaspiro[5.5]-undecane-3-carbonyl]-2,3-dihydro-1H-inden-1-yl]-benzenesulfonic acid amide]",71%
2,"O=C(NC1CCc2ccc(C(=O)N3CCC4(CC3)CCN(c3ccc(C(F)(F)F)cc3)CC4)cc21)c1c(Cl)cccc1Cl (stereo not shown) [IND_CC-286, 2,6-Dichloro-N-[6-[9-[4-(trifluoromethyl)-phenyl]-3,9-diazaspiro[5.5]undecane-3-carbonyl]-2,3-dihydro-1H-inden-1-yl]-benzamide]",90%
3,"COc1ccc(C(=O)NC2CCc3ccc(C(=O)N4CCC5(CC4)CCN(c4ccncc4)CC5)cc32)c(F)c1 (stereo not shown) [IND_CC-297, 2-Fluoro-4-methoxy-N-[6-(9-pyridin-4-yl-3,9-diazaspiro[5.5]undecane-3-carbonyl)-2,3-dihydro-1H-inden-1-yl]-benzamide]",107%
4,"Cc1cc(OC(F)(F)F)ccc1C(=O)NC1CCc2ccc(C(=O)N3CCC4(CC3)CCN(c3ccncc3)CC4)cc21 (stereo not shown) [IND_CC-300, 2-Methyl-N-[6-(9-pyridin-4-yl-3,9-diazaspiro[5.5]undecane-3-carbonyl)-2,3-dihydro-1H-inden-1-yl]-4-(trifluoromethyloxy)-benzamide]",65%
5,"CC1(C)Cc2ccc(C(=O)N3CCC4(CC3)CCN(c3ccncc3)CC4)cc2C1NC(=O)c1cc(Cl)ccc1C(F)(F)F (stereo not shown) [IND_CC-314, 5-Chloro-N-[2,2-dimethyl-6-(9-pyridin-4-yl-3,9-diazaspiro[5.5]undecane-3-carbonyl)-1,3-dihydro-inden-1-yl]-2-(trifluoromethyl)-benzamide]",80%
6,"CC1(C)CC(NC(=O)c2cc(Cl)ccc2C(F)(F)F)c2cc(C(=O)N3CCC4(CC3)CCN(c3ccncc3)CC4)ccc21 (stereo not shown) [IND_CC-315, 5-Chloro-N-[3,3-dimethyl-6-(3-pyridin-4-yl-3,9-diazaspiro[5.5]undecane-9-carbonyl)-1,2-dihydro-inden-1-yl]-2-(trifluoromethyl)-benzamide]",101%
7,"O=C(NC1CCc2ccc(C(=O)N3CCC4(CCN(c5ccncc5)CC4)C3)cc21)c1cc(Cl)ccc1C(F)(F)F (stereo not shown) [IND_CC-316, 5-Chloro-N-[6-(8-pyridin-4-yl-2,8-diazaspiro[4.5]decane-2-carbonyl)-2,3-dihydro-1H-inden-1-yl]-2-(trifluoromethyl)-benzamide]",100%
8,"Cc1ccc(C(=O)NC2c3cc(C(=O)N4CCC5(CC4)CCN(c4ccncc4)CC5)ccc3CC2(C)C)c(F)c1 (stereo not shown) [IND_CC-317, N-[2,2-Dimethyl-6-(9-pyridin-4-yl-3,9-diazaspiro[5.5]undecane-3-carbonyl)-1,3-dihydro-inden-1-yl]-2-fluoro-4-methyl-benzamide]",60%
9,"Cc1ccc(C(=O)NC2CC(C)(C)c3ccc(C(=O)N4CCC5(CC4)CCN(c4ccncc4)CC5)cc32)c(F)c1 (stereo not shown) [IND_CC-318, N-[3,3-Dimethyl-6-(3-pyridin-4-yl-3,9-diazaspiro[5.5]undecane-9-carbonyl)-1,2-dihydro-inden-1-yl]-2-fluoro-4-methyl-benzamide]",100%
10,"O=C(c1ccc2c(c1)C(NS(=O)(=O)c1c(Cl)cccc1Cl)CC2)N1CCC2(CC1)CCN(c1ccncc1)CC2 (stereo not shown) [IND_CC-322, 2,6-Dichloro-N-[6-(9-pyridin-4-yl-3,9-diazaspiro[5.5]undecane-3-carbonyl)-2,3-dihydro-1H-inden-1-yl]-benzenesulfonic acid amide]",102%
11,"O=C(c1ccc2c(c1)C(NS(=O)(=O)c1c(Cl)cccc1Cl)CC2)N1CCC2(CC1)CCN(c1ccncc1)C2 (stereo not shown) [IND_CC-323, 2,6-Dichloro-N-[6-(2-pyridin-4-yl-2,8-diazaspiro[4.5]decane-8-carbonyl)-2,3-dihydro-1H-inden-1-yl]-benzenesulfonic acid amide]",100%

# Now from value to compound:
row,inhibition at 10 µM,SMILES
1,74%,"COc1ccc(C(=O)NC2CCc3ccc(C(=O)N4CCC5(CC4)CCN(c4ccncc4)C5)cc32)c(F)c1 (stereo not shown) [IND_CC-298, 2-Fluoro-4-methoxy-N-[6-(2-pyridin-4-yl-2,8-diazaspiro[4.5]decane-8-carbonyl)-2,3-dihydro-1H-inden-1-yl]-benzamide]"
2,106%,"Cc1ccc(C(=O)NC2CCc3ccc(C(=O)N4CCC5(CC4)CCN(c4ccncc4)C5)cc32)c(F)c1 (stereo not shown) [IND_CC-306, 2-Fluoro-4-methyl-N-[6-(2-pyridin-4-yl-2,8-diazaspiro[4.5]decane-8-carbonyl)-2,3-dihydro-1H-inden-1-yl]-benzamide]"
3,83%,"COc1ccc(C(=O)NC2c3cc(C(=O)N4CCC5(CC4)CCN(c4ccncc4)CC5)ccc3CC2(C)C)c(F)c1 (stereo not shown) [IND_CC-311, N-[2,2-Dimethyl-6-(9-pyridin-4-yl-3,9-diazaspiro[5.5]undecane-3-carbonyl)-1,3-dihydro-inden-1-yl]-2-fluoro-4-methoxy-benzamide]"
4,95%,"COc1ccc(C(=O)NC2CCc3ccc(C(=O)N4CCC5(CCN(c6ccncc6)CC5)C4)cc32)c(F)c1 (stereo not shown) [IND_CC-313, 2-Fluoro-4-methoxy-N-[6-(8-pyridin-4-yl-2,8-diazaspiro[4.5]decane-2-carbonyl)-2,3-dihydro-1H-inden-1-yl]-benzamide]"
5,102%,"Cc1ccc(C(=O)NC2CCc3ccc(C(=O)N4CCC5(CCN(c6ccncc6)CC5)C4)cc32)c(F)c1 (stereo not shown) [IND_CC-319, 2-Fluoro-4-methyl-N-[6-(8-pyridin-4-yl-2,8-diazaspiro[4.5]decane-2-carbonyl)-2,3-dihydro-1H-inden-1-yl]-benzamide]"
6,83%,"CN(C1CCc2ccc(C(=O)N3CCC4(CC3)CCN(c3ccncc3)CC4)cc21)S(=O)(=O)c1ccc(C(F)(F)F)cc1Cl (stereo not shown) [IND_CC-320, 2-Chloro-N-methyl-N-[6-(9-pyridin-4-yl-3,9-diazaspiro[5.5]undecane-3-carbonyl)-2,3-dihydro-1H-inden-1-yl]-4-(trifluoromethyl)-benzenesulfonic acid amide]"
7,95%,"CN(C1CCc2ccc(C(=O)N3CCC4(CC3)CCN(c3ccncc3)CC4)cc21)S(=O)(=O)c1c(Cl)cccc1Cl (stereo not shown) [IND_CC-321, 2,6-Dichloro-N-methyl-N-[6-(9-pyridin-4-yl-3,9-diazaspiro[5.5]undecane-3-carbonyl)-2,3-dihydro-1H-inden-1-yl]-benzenesulfonic acid amide]"
8,98%,"CN(C1CCc2ccc(C(=O)N3CCC4(CC3)CCN(c3ccncc3)CC4)cc21)S(=O)(=O)c1ccc(Cl)cc1Cl (stereo not shown) [IND_CC-324, 2,4-Dichloro-N-methyl-N-[6-(9-pyridin-4-yl-3,9-diazaspiro[5.5]undecane-3-carbonyl)-2,3-dihydro-1H-inden-1-yl]-benzenesulfonic acid amide]"
